According to US20220041578A1, “ISOINDOLINE COMPOUND, AND PREPARATION METHOD, PHARMACEUTICAL COMPOSITION, AND APPLICATION OF ISOINDOLINE COMPOUND” (Shanghai Institute of Meteria Medica, Chinese Academy of …, priority 2018, published 2022):
Where two headings read alike, the source gives them in different places.

What was measured:
Format in all cases: cell-based
[1] = tested on: IL-2; test: IL-2 expression change in anti-human CD3 stimulated PBMC (ELISA); conditions: compound 10 nM, anti-human CD3 10 ug/ml, 24 hours
Method: (§1) All operations of this experiment were carried out according to the conventional experimental process of this kind of experiment at present. Peripheral blood from healthy volunteers was collected by routine standard procedure and cultured in 1640 medium (+10% FBS) to obtain PBMC. After recovery, PBMC was centrifuged and resuspended in serum-free medium. After counting, adjusted the density to be 6.25×10^5/ml; then inoculated 160 ul to a 96-well plate, 2 holes each, 1×10^5/well; 20 ul 10× compound and DMSO were added, and incubated for 1 hour in an incubator; then 20 ul 10× anti-human CD3 was added resulting the final concentration of 10 ug/ml and incubated in an incubator for 24 hours. Centrifuged the cell plate at 1500 rpm and aspirated 50 ul supernatant according to the ELISA operation. After operating according to the kit, a microplate reader was used to read at 450 nm. The concentration of compound was 10 nM, and DMSO was added as control group. Materials used in this experiment: 96 well plate (Corning, #3599), ELISA kit (Thermo), LPS (Sigma, USA).

[2] = tested on: MV-4-11 cells; test: Effect of the compound on proliferation of MV-4-11 cells (MTS); conditions: Homo sapiens
Method: MV-4-11 cells were cultured with IMDM plus 10% fetal bovine serum and collected. The cell concentration was diluted according to the action time of 7 days, and 180 ul of cell suspension was added to each well of a 96-well cell plate to make the cell count to be 2000. 20 ul of DMSO with a final concentration of 0.2% was added to the control cell wells. The compound was diluted 5-fold with the 10 mM stock solution, and 20 ul was also added to the compound cell wells (the final concentration of DMSO was 0.2%). The cells were placed in a 37° C., 5% CO2 incubator and incubated for 7 days. After preparing the reaction solution according to the MTS kit (Promega, G5430), 20 μL was added to each well, incubated in a 37° C., 5% CO2 incubator for 3-4 h. Read the 490 nm absorbance value with a microtiter plate, and used the 690 nm absorbance value as the background value and OD490-OD690 as the final initial data. The formula for calculating the inhibition rate of the compound was: inhibition rate=(OD DMSO-ODcompound)/(ODDMSO-Oblank)×100%. The compound's proliferation inhibition IC50 was fitted by Graph Pad Prism 5.0. The experiment was repeated three times, and three parallel experiments were used to calculate the average and standard deviation each time. The cell viability test results were shown in Table 3: A means cell viability IC50<1 μM, B means cell viability 1 μM≤IC50≤20 μM, C means cell viability IC50>20 μM.

[3] = tested on: TNF-α; test: TNF-α activity inhibition experiment in LPS-stimulated PBMC (ELISA); conditions: Homo sapiens, compound 10 nM, LPS 1 ug/ml, 72 hours, read-out: Inhibition rate of TNF-a (%)
Method: as §1, with “plate,” for “plate, 2 holes each,”, “ul 10 XLPS” for “ul 10× anti-human CD3”, “of 1” for “of 10”, “for 72” for “for 24”

[4] = tested on: triple negative breast cancer cells MDA-MB-231; test: Proliferation of other tumor cells, MDA-MB-231 (WST-8); conditions: Homo sapiens, 96 h, MDA-MB-231 cells, 4 days, read-out: Inhibitory activity on proliferation, MDA-MB-231 (IC50)
Method: (§2) The human triple negative breast cancer cells MDA-MB-468 and MDA-MB-231 used in this experiment were purchased from the Shanghai Cell Bank, in which L-15 medium added with 10% fetal bovine serum (FBS) and 1% double antibody was used. At 37° C., MDA-MB-468 and MDA-MB-231 cells were cultured in an incubator without CO2. Colorectal cancer cells HCT-116 were cultured in McCOY's 5A medium with 1% double antibody and 10% fetal bovine serum (FBS); prostate cancer cells DU145 were cultured in MEM medium with 1% double antibody and 10% fetal bovine serum (FBS); prostate cancer cells PC-3 were cultured in F-12 K medium with 1% double antibody and 10% fetal bovine serum (FBS); grew at 37° C., 5% CO2.
(§3) In the cell activity test experiment, 90 μL cell suspension with appropriate concentration was added to a 96-well cell culture plate according to the cell growth, each compound to be tested was gradient diluted with the corresponding medium, 10 μL diluted compound was added to 90 μL cells, and then incubated at 37° C. for 4 days. Cell proliferation was analyzed by WST-8, which could be reduced by lactate dehydrogenase in the cells to a yellow formazan. 10 μL of WST-8 reagent (DOJINDO) was added to the cells and reacted for more than 1 hour at 37° C., DMSO-treated cells were used as […]. The absorption value of 490 nm was read by enzyme-labeled plate, and the absorption value of 690 nm was taken as the background value, and OD490-OD690 was taken as the final original data, and the data was processed by GraphPad Prism6 software. The formula for calculating the inhibition rate of the compound was: inhibition rate=(ODDMSO−ODcompound)/(ODDMSO−Oblank)×100%. The compound's proliferation inhibition IC50 was fitted by Graph Pad Prism 5.0. The experiment was repeated three times, and three parallel experiments were used to calculate the average and standard deviation each time. The cell viability test results were shown in Table 4: A means cell viability IC50<1 μM, B means cell viability 1 μM≤IC50≤20 μM, C means cell viability IC50>20 μM, NT means not tested.

[5] = tested on: Colorectal cancer cells HCT-116; test: Proliferation of other tumor cells, HCT-116 (WST-8); conditions: Homo sapiens, 96 h, HCT-116 cells, 4 days, read-out: Inhibitory activity on proliferation, HCT-116 (IC50)
Method: as §2, §3

Nc1cccc2c1CN(C1CCC(=O)NC1=O)C2=O (stereo not drawn) [Lenalidomide, lenalidomide, reference compound]
Increase multiple of IL-2 Expression [1]: >3
IC50 ([2]; MV4-11, 168 h, 7 days, MTS, read-out: Inhibitory activity (IC50)): > 20 µM
IC50 ([2]; MV4-11, read-out: cytostatic activity (IC50) on MV-4-11 cells): > 20 µM
inhibition at 0.01 µM [3]: < 50%
IC50 [4]: > 20 µM
IC50 [5]: > 20 µM
